The text below walks through data of US10660967B2, “Curcumin conjugates and methods of use thereof” (priority 2016, dated 2020).

The subject of series [1] is Streptococcus pyogenes ATCC19615. In words: Antimicrobial MIC, agar dilution.
For series [2], the system named is MCF7 (breast) carcinoma cell line. Nature of the series: Anti-tumor properties, MTT. The following applies: Homo sapiens, MCF7; read-out: IC50 (μM) MCF7 (breast). It is filed as cell-based. Summed up: (§1)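 Cells seeded at 10×10^3 per well for 24 h, then exposed to compound in serum-free medium (final up to 100 μM, 0.5% DMSO vehicle) for 72 h in triplicate. Viability by MTT reduction (4 h, SDS solubilised), absorbance 595 nm/ref 620 nm; IC50 from survival curves.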

The test system of series [3] is HepG2 (hepatocellular) carcinoma cell line. Nature of the series: Anti-tumor properties, MTT. In kind it is cell-based. The following applies: Homo sapiens, HepG2; read-out: IC50 (μM) HepG2 (liver). Summed up: as §1
For series [4], the system named is HCT116 (colon) carcinoma cell line. In words: Anti-tumor properties, MTT. It is filed as cell-based. The following applies: Homo sapiens, HCT-116; read-out: IC50 (μM) HCT116 (colon). An outline of the steps:
as §1

In series [5] the test system is PHA-stimulated splenocytes. Nature of the series: Proliferative response of PHA-stimulated splenocytes (MTT assay). It is filed as cell-based. The settings on record: PHA 5 μg/ml, 72 hr; compounds at 5 μM (method says 10 μM); ratio of O.D. versus vehicle control. An outline of the steps: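 Readout was MTT absorbance (570 nm, reference 690 nm) after 72 h culture at 37° C. Splenocytes at 1×10^6 cells/well received test compound (10 μM final) alone or plus PHA 5 μg/ml as T-cell mitogen. Values are OD ratios of compound over vehicle control (stimulation index).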
On the technique in general: Tetrazolium assays rely on reduction of a dye to a coloured formazan, in cell work by metabolically active cells.

In series [6] the test system is Staphylococcus aureus ATCC25923. In words: Antimicrobial MIC, agar dilution. Background: Agar dilution tests growth on a series of plates holding different concentrations.
Series [7] concerns Candida albicans (local isolate). Nature of the series: Antimicrobial MIC, agar dilution. The settings on record: Candida albicans, read-out: Minimum inhibitory concentration (MIC).
In series [8] the test system is PC3 (prostate) carcinoma cell line. Nature of the series: Anti-tumor properties, MTT. It is filed as cell-based. The settings on record: Homo sapiens.
Series [9] deals with A-549 (lung) carcinoma cell line. Nature of the series: Anti-tumor properties, MTT. In kind it is cell-based. The settings on record: Homo sapiens, A549.
Series [10] deals with Pseudomonas aeruginosa ATCC27853. In words: Antimicrobial MIC, agar dilution.
The test system of series [11] is lipopolysaccharide-stimulated peritoneal macrophages. Nature of the series: Production of nitric oxide by lipopolysaccharide-stimulated peritoneal macrophages (Greiss reagent). It is filed as cell-based. More on the design: Potency (%): % inhibition of nitric oxide production relative to lipopolysaccharide-stimulated macrophages: concentration or dose not given beside the values. The settings on record: LPS-stimulated peritoneal macrophages; for Nitric oxide (nitrite) concentration, μM (average ± SD): 24 h, nitrite by Greiss reagent. An outline of the steps:
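NO output was quantified as accumulated nitrite, reacting supernatant with Greiss reagent (sulfanilamide/α-naphthylamine) and reading at 532 nm. Beforehand, cells had been incubated 24 h at 37° C. in nitrite-free, 0.1% BSA medium with 0.5–10 ng/ml LPS, with or without catecholamines at […].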

For series [12], the system named is Salmonella typhi ATCC19430. In words: Antimicrobial MIC, agar dilution. In kind it is cell-based. The following applies: Salmonella enterica, read-out: Minimum inhibitory concentration (MIC).
The subject of the next series is gastric mucosa. In words: Ulcerogenic liability (ulcer index). It is filed as in vivo, albino mice. The settings on record: orally, three successive days, 10 mg/kg indomethacin mol equivalent. Summed up:
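Albino mice were fasted 18 h before dosing, and controls got saline with a few drops of Tween 80. Gastric mucosa was checked under a 10× lens for lesions and erosions. The ulcer index combines percentage incidence divided by 10, mean ulcers per stomach and mean severity.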

The mark [13] stands for this setting: ATCC19615, 18 h, read-out: Minimum inhibitory concentration (MIC).
The mark [14] stands for this setting: ATCC19615, read-out: Minimum inhibitory concentration (MIC).
Setting [15] is: ATCC25923, 18 h, read-out: Minimum inhibitory concentration (MIC).
Setting [16] is: ATCC25923, read-out: Minimum inhibitory concentration (MIC).
[17] abbreviates: ATCC27853, 18 h, read-out: Minimum inhibitory concentration (MIC).
[18] abbreviates: ATCC27853, read-out: Minimum inhibitory concentration (MIC).

The structures appear in SMILES notation. Where two headings read alike, the source gives them in different places.

What is called IC50 is the concentration needed to halve the response being measured. For the compound `COc1cc(/C=C/C(=O)CC(=O)/C=C/c2ccc(OC(=O)CNC(=O)OC(C)(C)C)c(OC)c2)ccc1OC(=O)CNC(=O)OC(C)(C)C` [Boc-Gly-Cur, ((1E,6E)-3,5-dioxohepta-1,6-diene-1,7-diyl)bis(2-methoxy-4,1-phenylene) bis(2-((tert-butoxycarbonyl)amino)acetate)], the MIC in [1] (setting [13]) is 1 µg/mL; in series [1] (setting [14]), 1.47 µM; in [6] (setting [15]), 0.25 µg/mL; in series [6] (setting [16]), 0.366 µM; in series [7] (18 h), 0.5 µg/mL; in series [7] it was 0.732 µM. For the same compound, the MIC came out at 0.25 µg/mL in series [10] (setting [17]), 0.366 µM in series [10] (setting [18]), 0.125 µg/mL in series [12] (18 h) and 0.183 µM in series [12]. For the same compound, the IC50 in [2] is 17.2 µM; in series [3], more than 100 µM; in series [4] it was more than 100 µM; in [8], more than 100 µM; in series [9], 80.9 µM. Besides, in [5], the “Stimulation Index (average ± SD)” value is 2.11 ± 0.16. In series [11], the “Potency (%): % inhibition of nitric oxide production relative to lipopolysaccharide-stimulated macrophages” value was found to be 33.65%. The “Nitric oxide (nitrite) concentration, μM (average ± SD)” value (“Nitric oxide … (average ± SD)” below) in series [11] is 18.12 ± 1.41 µM.
On to `COc1cc(/C=C/C(=O)CC(=O)/C=C/c2ccc(OC(=O)[C@H](C)N)c(OC)c2)ccc1OC(=O)[C@H](C)N.Cl.Cl` [HCl-L-Ala-Cur, (2S,2′S)-1,1′-((((1E,6E)-3,5-dioxohepta-1,6-diene-1,7-diyl)bis(2-methoxy-4,1-phenylene))bis(oxy))bis(1-oxopropan-2-aminium) chloride], for which the MIC in series [1] (setting [13]) amounted to 0.5 µg/mL; in series [1] (setting [14]), 0.857 µM; in series [6] (setting [15]), 0.5 µg/mL; in [6] (setting [16]) it was 0.857 µM; in [7] (18 h) it was 0.5 µg/mL; in series [7], 0.857 µM. In addition, the MIC in series [10] (setting [17]) was found to be 0.25 µg/mL; in [10] (setting [18]) it was 0.428 µM; in [12] (18 h) it was 0.5 µg/mL; in [12] it was 0.857 µM. Also, the IC50 in series [2] is 10.7 µM; in series [3], 33.8 µM; in series [4], 38.8 µM; in series [8], 31.5 µM; in series [9], 21.7 µM. In series [5], the “Stimulation Index (average ± SD)” value is 1.14 ± 0.18. In addition, the “Potency (%): % inhibition of nitric oxide production relative to lipopolysaccharide-stimulated macrophages” value in series [11] is reported as 46.24%. In addition, in series [11], the “Nitric oxide … (average ± SD)” value stood at 14.68 ± 1.20 µM.
As to `COc1cc(/C=C/C(=O)CC(=O)/C=C/c2ccc(OC(=O)[C@@H](NC(=O)OC(C)(C)C)C(C)C)c(OC)c2)ccc1OC(=O)[C@@H](NC(=O)OC(C)(C)C)C(C)C` [Boc-L-Val-Cur, ((1E,6E)-3,5-dioxohepta-1,6-diene-1,7-diyl)bis(2-methoxy-4,1-phenylene) (2S,2′S)-bis(2-((tert-butoxycarbonyl)amino)-3-methylbutanoate)], the MIC was 2 µg/mL in series [1] (setting [13]); 2.61 µM in series [1] (setting [14]); 0.25 µg/mL in [6] (setting [15]); 0.326 µM in series [6] (setting [16]); 1 µg/mL in series [7] (18 h); 1.3 µM in series [7]. The MIC was found to be 2 µg/mL in series [10] (setting [17]), 2.61 µM in [10] (setting [18]), 0.25 µg/mL in [12] (18 h) and 0.326 µM in series [12]. Besides, the IC50 in series [2] is not below 100 µM; in series [3], more than 100 µM; in series [4], more than 100 µM; in [8] it was more than 100 µM; in series [9], more than 100 µM. Further, in series [5], the “Stimulation Index (average ± SD)” value was found to be 1.84 ± 0.06. Moreover, the “Potency (%): % inhibition of nitric oxide production relative to lipopolysaccharide-stimulated macrophages” value in [11] stood at 29.35%. In addition, the “Nitric oxide … (average ± SD)” value in series [11] was 19.29 ± 0.39 µM.
With `COc1cc(/C=C/C(=O)CC(=O)/C=C/c2ccc(OC(=O)[C@H](C)NC(=O)OC(C)(C)C)c(OC)c2)ccc1OC(=O)[C@H](C)NC(=O)OC(C)(C)C` [Boc-L-Ala-Cur, ((1E,6E)-3,5-dioxohepta-1,6-diene-1,7-diyl)bis(2-methoxy-4,1-phenylene) (2S,2′S)-bis(2-((tert-butoxycarbonyl)amino)propanoate)], the MIC amounted to 0.25 µg/mL in [1] (setting [13]); 0.352 µM in series [1] (setting [14]); 0.125 µg/mL in series [6] (setting [15]); 0.176 µM in series [6] (setting [16]); 1 µg/mL in series [7] (18 h); 1.41 µM in series [7]. Moreover, the MIC in series [10] (setting [17]) worked out at 1 µg/mL; in [10] (setting [18]), 1.41 µM; in series [12] (18 h) it was 0.125 µg/mL; in series [12], 0.176 µM. The IC50 in series [2] was 25.1 µM; in series [3], more than 100 µM; in [4], more than 100 µM; in series [8], more than 100 µM; in series [9] it was more than 100 µM. For the same compound, in [5], the “Stimulation Index (average ± SD)” value is 2.71 ± 0.28. For the same compound, the “Potency (%): % inhibition of nitric oxide production relative to lipopolysaccharide-stimulated macrophages” value in series [11] stood at 22.02%. Further, the “Nitric oxide … (average ± SD)” value in series [11] worked out at 21.30 ± 1.72 µM.
Regarding `COc1cc(/C=C/C(=O)CC(=O)/C=C/c2ccc(OC(=O)[C@@H](CCSC)NC(=O)OC(C)(C)C)c(OC)c2)ccc1OC(=O)[C@@H](CCSC)NC(=O)OC(C)(C)C` [Boc-D-Met-Cur, ((1E,6E)-3,5-dioxohepta-1,6-diene-1,7-diyl)bis(2-methoxy-4,1-phenylene) (2R,2′R)-bis(2-((tert-butoxycarbonyl)amino)-4-(methylthio)butanoate)], the “% Incidence of ulcer divided by 10” value with gastric mucosa came out at 0. Besides, in the series with gastric mucosa, the “Average of ulcer number” value amounted to 0. For the same compound, the “Average severity of ulcer” value with gastric mucosa is listed as 0. Also, the “Number of animals with ulcer” value in the series on gastric mucosa (6 animals per group) is on record as 0/6. For the same compound, the Ulcer index with gastric mucosa (sum of the three values) is given as 0. The MIC in series [1] (setting [13]) was determined as 0.125 µg/mL; in series [1] (setting [14]), 0.15 µM; in series [6] (setting [15]), 0.25 µg/mL; in series [6] (setting [16]) it was 0.301 µM; in series [7] (18 h), 0.5 µg/mL; in series [7], 0.602 µM. In addition, the MIC in [10] (setting [17]) is 0.25 µg/mL; in series [10] (setting [18]), 0.301 µM; in series [12] (18 h), 1 µg/mL; in series [12], 1.2 µM. Besides, the IC50 is 22.3 µM in [2]; more than 100 µM in series [3]; more than 100 µM in series [4]; more than 100 µM in series [8]; more than 100 µM in series [9]. For the same compound, in [5], the “Stimulation Index (average ± SD)” value was found to be 2.53 ± 0.08.
On to `COc1cc(/C=C/C(=O)CC(=O)/C=C/c2ccc(OC(=O)[C@H](CCC(N)=O)NC(=O)OCc3ccccc3)c(OC)c2)ccc1OC(=O)[C@H](CCC(N)=O)NC(=O)OCc1ccccc1` [Z-L-Gln-Cur, ((1E,6E)-3,5-dioxohepta-1,6-diene-1,7-diyl)bis(2-methoxy-4,1-phenylene) (2S,2′S)-bis(5-amino-2-(((benzyloxy)carbonyl)amino)-5-oxopentanoate)], for which the MIC in series [1] (setting [13]) turned out to be 0.125 µg/mL; in [1] (setting [14]), 0.14 µM; in series [6] (setting [15]) it was 0.5 µg/mL; in series [6] (setting [16]), 0.56 µM; in series [7] (18 h) it was 0.5 µg/mL; in [7], 0.56 µM. In addition, the MIC in series [10] (setting [17]) came to 1 µg/mL; in series [10] (setting [18]) it was 1.12 µM; in series [12] (18 h) it was 0.5 µg/mL; in series [12], 0.56 µM. Also, the IC50 is 10.2 µM in series [2]; more than 100 µM in [3]; more than 100 µM in [4]; 90.7 µM in [8]; 46.1 µM in series [9]. For the same compound, in series [5], the “Stimulation Index (average ± SD)” value is given as 2.37 ± 0.16.
